Source: patent US7807678B2, “Peptidomimetics of biologically active metallopeptides” (Palatin Technologies, Inc., priority 2001, dated 2010)
Read-outs that look alike come from different tables or passages of the source. Non-standard residues stand in square brackets, D forms with d. Residues, ends and D or L forms follow the SMILES beside them. *: point of attachment. Hyp = O=C(O)[C@@H]1C[C@@H](O)CN1; Nle = CCCC[C@H](N)C(=O)O; NH(CH2)3NH2 = NCCCN*; Bn = c1ccc(C*)cc1

Columns and labels:
MC5-R = MC5-R (Homo sapiens, UniProt P33032); assay: Competitive inhibition binding assay, 125I-NDP-α-MSH, MC5-R; parameters: expressed in transfected cells; settings: for Inhibition at 1 μM MC5-R: 1 μM compound, inhibition of 125I-NDP-α-MSH binding, mean of triplicates, results less than 0% reported as 0%
Procedure, shortened: (§1)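 Membranes from hMC3-R, hMC4-R or hMC5-R cells, or B-16 mouse melanoma cells (MC1-R), were incubated 90 min at room temperature with 0.4 nM 125I-NDP-α-MSH in HEPES pH 7.2 with Mg2+/Ca2+/K+, and test compound generally at 1 μM. Filter-bound radioactivity was gamma counted. Specific binding was defined with 1 μM α-MSH; triplicate means.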

MC3-R = MC3-R (Homo sapiens, UniProt P41968); assay: Competitive inhibition binding assay, 125I-NDP-α-MSH, MC3-R; parameters: expressed in transfected cells; settings: for Inhibition at 1 μM MC3-R: 1 μM compound, inhibition of 125I-NDP-α-MSH binding, mean of triplicates, results less than 0% reported as 0%
Procedure, shortened: as §1

[1] = target: T1, MC1-R (B-16 mouse melanoma cells) (Mus musculus, UniProt Q01727); assay: cAMP assay for agonist/antagonist status, MC1-R; type: cell-based
T1 construct: B-16 mouse melanoma cells (containing MC1-R); endogenous in cells; host or cells: B-16 mouse melanoma cells
Procedure: (§2) The Ki (nM) of certain peptidomimetics were determined, as was the agonist/antagonist status with respect to MC4-R, Functional evaluation of compounds at melanocortin receptors was performed by measuring the accumulation of intracellular cAMP in HEK-293 cells expressing MC3-R, MC4-R or MC5-R, and in B-16 mouse melanoma cells (containing MC1-R). Antagonistic activity was determined by measuring the inhibition of α-MSH-induced cAMP levels following exposure to the compounds. Cells, suspended in Earle's Balanced Salt Solution containing 10 mM HEPES, pH 7.5, 5 mM MgCl2, 1 mM glutamine, 0.1% albumin and 0.6 mM 3-isobutyl-1-methyl-xanthine, a phosphodiesterase inhibitor, were plated in 96 well plates at a density of 0.5×10^5 cells per well. Cells were incubated with the test compounds in the presence or absence of α-MSH for 1 hour at 37° C. cAMP levels were measured by EIA (Amersham) in the cell lysates. Data analysis and EC50 values were determined using nonlinear regression analysis with Prism Graph-Pad software.

[2] = target: T1, MC1-R (B-16 mouse melanoma cells); assay: Competitive inhibition binding assay, 125I-NDP-α-MSH, MC1-R; settings: for Inhibition at 1 μM MC1-R: 1 μM compound, inhibition of 125I-NDP-α-MSH binding, mean of triplicates, results less than 0% reported as 0%
Procedure, shortened: as §1

MC4-R = MC4-R (Homo sapiens, UniProt P32245); assay: Competitive inhibition binding assay, 125I-NDP-α-MSH, MC4-R; parameters: expressed in transfected cells; settings: for Inhibition at 1 μM MC4-R: 1 μM compound, inhibition of 125I-NDP-α-MSH binding, mean of triplicates, results less than 0% reported as 0%
Procedure, shortened: as §1

MC4-R (HEK-293 cells) = target: T2, MC4-R (HEK-293 cells) (Homo sapiens, UniProt P32245); assay: cAMP assay for agonist/antagonist status, MC4-R; type: cell-based
T2 construct: expressed in transfected cells; host or cells: HEK-293
Procedure: as §2

MC5-R (HEK-293 cells) = target: T3, MC5-R (HEK-293 cells) (Homo sapiens, UniProt P33032); assay: cAMP assay for agonist/antagonist status, MC5-R; type: cell-based
T3 construct: expressed in transfected cells; host or cells: HEK-293
Procedure: as §2

T1 sequence (Q01727 whole entry): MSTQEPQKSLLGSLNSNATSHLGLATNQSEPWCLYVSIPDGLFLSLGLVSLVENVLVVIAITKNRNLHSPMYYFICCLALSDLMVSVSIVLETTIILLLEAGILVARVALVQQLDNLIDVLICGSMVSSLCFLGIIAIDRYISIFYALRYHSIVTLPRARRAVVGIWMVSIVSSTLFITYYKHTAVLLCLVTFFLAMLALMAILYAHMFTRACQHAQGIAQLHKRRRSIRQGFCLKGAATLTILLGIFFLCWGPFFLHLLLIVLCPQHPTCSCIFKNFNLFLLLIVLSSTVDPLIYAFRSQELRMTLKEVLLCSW
MC3-R, sequence (P41968 whole entry): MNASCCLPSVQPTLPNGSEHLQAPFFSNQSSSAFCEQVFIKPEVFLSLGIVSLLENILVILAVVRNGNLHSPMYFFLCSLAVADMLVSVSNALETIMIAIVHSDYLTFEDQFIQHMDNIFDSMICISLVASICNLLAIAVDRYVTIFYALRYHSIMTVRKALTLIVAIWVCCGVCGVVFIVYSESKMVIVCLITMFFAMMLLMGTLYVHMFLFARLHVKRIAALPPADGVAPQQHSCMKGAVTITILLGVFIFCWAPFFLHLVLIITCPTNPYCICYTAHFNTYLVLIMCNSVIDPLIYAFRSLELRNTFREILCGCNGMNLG
MC5-R, sequence (P33032 whole entry): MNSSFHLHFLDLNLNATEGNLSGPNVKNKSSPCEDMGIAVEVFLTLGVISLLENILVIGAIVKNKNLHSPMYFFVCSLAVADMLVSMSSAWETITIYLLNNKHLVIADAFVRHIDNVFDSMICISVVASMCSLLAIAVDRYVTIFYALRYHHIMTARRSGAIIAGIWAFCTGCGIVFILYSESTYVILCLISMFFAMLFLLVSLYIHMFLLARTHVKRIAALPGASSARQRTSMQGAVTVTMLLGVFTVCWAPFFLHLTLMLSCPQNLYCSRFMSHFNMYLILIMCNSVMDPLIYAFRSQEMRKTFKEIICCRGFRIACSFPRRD
T3 sequence (P33032 whole entry): as above
T2 sequence (P32245 whole entry): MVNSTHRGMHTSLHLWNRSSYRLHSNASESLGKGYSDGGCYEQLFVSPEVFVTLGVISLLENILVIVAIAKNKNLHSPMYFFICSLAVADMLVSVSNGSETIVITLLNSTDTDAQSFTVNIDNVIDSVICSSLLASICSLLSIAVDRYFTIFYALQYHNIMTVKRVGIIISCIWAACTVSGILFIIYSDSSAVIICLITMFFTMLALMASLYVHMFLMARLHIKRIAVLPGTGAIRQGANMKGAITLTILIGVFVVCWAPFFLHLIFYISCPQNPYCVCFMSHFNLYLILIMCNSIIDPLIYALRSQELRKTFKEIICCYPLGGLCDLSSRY
MC4-R, sequence (P32245 whole entry): as above

Compound | Inhibition at 1 μM MC5-R (MC5-R) [%] | Inhibition at 1 μM MC3-R (MC3-R) [%] | agonist/antagonist status as to MC1-R [1] | Inhibition at 1 μM MC1-R [2] [%] | Inhibition at 1 μM MC4-R (MC4-R) [%] | agonist/antagonist status as to MC4-R (MC4-R (HEK-293 cells)) | agonist/antagonist status as to MC5-R (MC5-R (HEK-293 cells)) | agonist/antagonist status as to MC1-R ([1]; listed as Compound 1) | inhibition at 1 µM (MC5-R) [%] | inhibition at 1 µM (MC3-R) [%] | inhibition at 1 µM [2] [%] | inhibition at 1 µM (MC4-R) [%]
NCCCC[C@H]1C(=O)N(CCc2ccc3ccccc3c2)CCN1C(=O)[C@@H](Cc1ccc(Cl)cc1Cl)NC(=O)[C@@H]1Cc2ccccc2CN1 [Example 23] | 80 | 62 | agonist | 63 | 100 | agonist | agonist | – | – | – | – | –
C[C@@H](OCc1ccccc1)[C@H](N)C(=O)N[C@H](Cc1ccc(Cl)cc1Cl)C(=O)N1CCN(CCc2ccc3ccccc3c2)C(=O)[C@@H]1CCCCN [Example 24] | 78 | 34 | agonist | 30 | 99 | agonist | agonist | – | – | – | – | –
NCCCC[C@H]1C(=O)N(CCc2ccc3ccccc3c2)CCN1C(=O)[C@@H](Cc1ccc(Cl)cc1Cl)NC(=O)[C@@H]1C[C@@H](OCc2ccccc2)CN1 [Example 25] | 83 | 61 | agonist | 21 | 100 | agonist | agonist | – | – | – | – | –
NCCCC[C@H]1C(=O)N(CCc2ccc3ccccc3c2)CCN1C(=O)[C@@H](Cc1ccc(Cl)cc1Cl)NC(=O)[C@H]1CC[C@@H](c2ccccc2)N1 [Example 27] | 46 | 9 | agonist | 0 | 71 | agonist | agonist | – | – | – | – | –
NCCCC[C@H]1C(=O)N(CCc2ccc3ccccc3c2)CCN1C(=O)[C@@H](Cc1ccc(Cl)cc1Cl)NC(=O)CCc1ccccc1 [Example 36] | 34 | 22 | agonist | 72 | 92 | antagonist | agonist | – | – | – | – | –
NCCCC[C@H]1C(=O)N(CCc2ccc3ccccc3c2)CCN1C(=O)[C@@H](Cc1ccc(Cl)cc1Cl)NC(=O)c1ccc(Oc2ccccc2)cc1 [Example 37] | 51 | 51 | antagonist | 35 | 99 | antagonist | agonist | – | – | – | – | –
NCCCC[C@H]1C(=O)N(CCc2ccc3ccccc3c2)CCN1C(=O)[C@@H](Cc1ccc(Cl)cc1Cl)NCc1ccc(-c2ccccc2)cc1 [Example 39] | 9 | 4 | antagonist | 0 | 85 | antagonist | agonist | – | – | – | – | –
NCCCNC(=O)[C@@H]1C[C@@H](OCc2ccccc2)CN1C(=O)[C@@H](Cc1ccccc1)NC(=O)[C@@H](N)Cc1ccc(-c2ccccc2)cc1 [Example 171] | 25 | 0 | – | 11 | 9 | – | – | – | – | – | – | –
NCCCNC(=O)[C@@H]1C[C@@H](OCc2ccccc2)CN1C(=O)[C@@H](Cc1ccccc1)NC(=O)[C@@H]1Cc2ccccc2N1 [Example 172] | 0 | 0 | – | 14 | 4 | – | – | – | – | – | – | –
NCCCNC(=O)[C@@H]1C[C@@H](OCc2ccccc2)CN1C(=O)[C@@H](Cc1ccccc1)NC(=O)[C@H](N)C1Cc2ccccc2C1 [Example 175] | 0 | 0 | – | 3 | 19 | – | – | – | – | – | – | –
NCCCNC(=O)C1CC(OCc2ccccc2)CN1C(=O)C(Cc1ccccc1)NC(=O)C1CCC(=O)N1C(=O)OCc1ccccc1 (stereo not shown) [Example 177] | 0 | 0 | – | 2 | 7 | – | – | – | – | – | – | –

The remaining lines, values ahead:

Inhibition at 1 μM MC5-R (MC5-R) [%] | Inhibition at 1 μM MC3-R (MC3-R) [%] | agonist/antagonist status as to MC1-R [1] | Inhibition at 1 μM MC1-R [2] [%] | Inhibition at 1 μM MC4-R (MC4-R) [%] | agonist/antagonist status as to MC4-R (MC4-R (HEK-293 cells)) | agonist/antagonist status as to MC5-R (MC5-R (HEK-293 cells)) | agonist/antagonist status as to MC1-R ([1]; listed as Compound 1) | inhibition at 1 µM (MC5-R) [%] | inhibition at 1 µM (MC3-R) [%] | inhibition at 1 µM [2] [%] | inhibition at 1 µM (MC4-R) [%] | Compound
76 | 47 | agonist | 40 | 98 | agonist | agonist | – | – | – | – | – | NCCCC[C@H]1C(=O)N(CCc2ccc3ccccc3c2)CCN1C(=O)[C@@H](Cc1ccc(Cl)cc1Cl)NC(=O)[C@@H](N)COCc1ccccc1 [Example 22]
61 | 25 | antagonist | 14 | 91 | antagonist | agonist | – | – | – | – | – | NCCCC[C@H]1C(=O)N(CCc2ccc3ccccc3c2)CCN1C(=O)[C@@H](Cc1ccc(Cl)cc1Cl)NC(=O)C/C=C/c1ccccc1 [Example 33]
61 | 21 | antagonist | 3 | 97 | antagonist | agonist | – | – | – | – | – | NCCCC[C@H]1C(=O)N(CCc2ccc3ccccc3c2)CCN1C(=O)[C@@H](Cc1ccc(Cl)cc1Cl)NC(=O)c1cccc(Oc2ccccc2)c1 [Example 38]
30 | 17 | antagonist | 27 | 91 | antagonist | agonist | – | – | – | – | – | NCCCC[C@H]1C(=O)N(CCc2ccc3ccccc3c2)CCN1C(=O)[C@@H](Cc1ccc(Cl)cc1Cl)NCCOCc1ccccc1 [Example 40]
25 | 13 | agonist | 91 | 8 | – | – | full agonistic activity | – | – | – | – | CCCC[C@H](NC(C)=O)C(=O)N[C@@H](C)C(=O)N[C@@H](Cc1cnc[nH]1)C(=O)N[C@H](Cc1ccccc1)C(=O)N1C[C@H](OCc2ccccc2)C[C@H]1C(=O)NCCCN [Example 133] (Ac-[Nle]AH[dF][Hyp](Bn)-{NH(CH2)3NH2})
0 | 0 | – | 18 | 10 | – | – | – | – | – | – | – | NCCCNC(=O)[C@@H]1C[C@@H](OCc2ccccc2)CN1C(=O)[C@@H](Cc1ccccc1)NC(=O)C1CCC(CN)CC1 (stereo partly shown) [Example 168]
0 | 0 | – | 12 | 6 | – | – | – | – | – | – | – | NCCCNC(=O)[C@@H]1C[C@@H](OCc2ccccc2)CN1C(=O)[C@@H](Cc1ccccc1)NC(=O)c1ccc(CN)cc1 [Example 169]
0 | 13 | – | 7 | 7 | – | – | – | – | – | – | – | NCCCNC(=O)[C@@H]1C[C@@H](OCc2ccccc2)CN1C(=O)[C@@H](Cc1ccccc1)NC(=O)[C@H](N)C(c1ccccc1)c1ccccc1 [Example 173]
2 | 21 | – | 10 | 15 | – | – | – | – | – | – | – | NCCCNC(=O)[C@@H]1C[C@@H](OCc2ccccc2)CN1C(=O)[C@@H](Cc1ccccc1)NC(=O)[C@@H](N)C1Cc2ccccc2C1 [Example 174]
8 | 0 | – | 18 | 8 | – | – | – | – | – | – | – | CC(O)C(N)C(=O)NC(Cc1ccccc1)C(=O)N1CC(OCc2ccccc2)CC1C(=O)NCCCN (stereo not shown) [Example 176]
0 | 0 | – | 33 | 0 | – | – | – | – | – | – | – | CCCCCCC(=O)NC(COCc1ccccc1)C(=O)NC(Cc1ccc2ccccc2c1)C(=O)N1CC2CC(Oc3ccc4ccccc4c3)CN2C(=O)C1CCCCN (stereo not shown) [Example 178]
– | – | – | – | – | – | – | – | 0 | 0 | 0 | 0 | [2H]N[C@@H](Cc1cnc[nH]1)C(=O)N[C@@H](Cc1ccccc1)C(=O)N1CC2C[C@H](Oc3ccc4ccccc4c3)CN2C(=O)[C@@H]1CCCCN (stereo partly shown) [Example 179]
